Experimental data published in ChEMBL document CHEMBL1132761, “Novel Dmt-Tic dipeptide analogues as selective delta-opioid receptor antagonists” (Bioorg Med Chem Lett, 2000).
Non-standard residues stand in square brackets, D forms with d. Residues, ends and D or L forms follow the SMILES beside them. Dmt = Cc1cc(O)cc(C)c1C[C@H](N)C(=O)O; Tic = O=C(O)[C@@H]1Cc2ccccc2CN1

Legend:
[1] = target: Opioid receptors; mu & delta (Homo sapiens) (UniProt P41143+P35372); assay: Ratio of binding affinity of compound to mu receptor compared to that of delta receptor (Mu/Delta); assay type: protein assay
Opioid receptors; mu & delta (Homo sapiens), sequence (P35372 whole entry, looked up): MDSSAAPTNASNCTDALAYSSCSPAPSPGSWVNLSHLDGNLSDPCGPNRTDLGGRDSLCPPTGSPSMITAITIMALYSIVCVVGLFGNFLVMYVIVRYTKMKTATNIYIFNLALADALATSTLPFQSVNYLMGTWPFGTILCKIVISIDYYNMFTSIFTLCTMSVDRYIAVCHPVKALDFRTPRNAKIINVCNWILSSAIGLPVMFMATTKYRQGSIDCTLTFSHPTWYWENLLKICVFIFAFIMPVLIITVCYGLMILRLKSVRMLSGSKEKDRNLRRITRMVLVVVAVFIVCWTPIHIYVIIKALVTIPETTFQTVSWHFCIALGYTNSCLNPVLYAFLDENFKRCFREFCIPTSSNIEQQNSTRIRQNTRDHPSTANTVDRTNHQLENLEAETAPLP
Opioid receptors; mu & delta (Homo sapiens), sequence (P41143 whole entry, looked up): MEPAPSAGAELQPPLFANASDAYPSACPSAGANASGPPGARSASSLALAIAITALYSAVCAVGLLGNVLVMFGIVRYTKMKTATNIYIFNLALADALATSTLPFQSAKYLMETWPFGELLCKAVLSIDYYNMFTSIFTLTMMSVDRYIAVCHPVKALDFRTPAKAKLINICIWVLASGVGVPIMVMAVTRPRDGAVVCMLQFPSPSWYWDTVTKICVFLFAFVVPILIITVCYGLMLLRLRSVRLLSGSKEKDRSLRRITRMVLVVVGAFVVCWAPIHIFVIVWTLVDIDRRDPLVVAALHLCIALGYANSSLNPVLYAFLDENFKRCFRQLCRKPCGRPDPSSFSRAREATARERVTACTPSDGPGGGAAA

[2] = target: T1, Delta-type opioid receptor (Homo sapiens, UniProt P41143); assay: Compound was evaluated for binding affinity towards Opioid receptor delta 1 by displacing 125 I-deltorphin II
T1 sequence (P41143 whole entry): as the sequence (P41143 whole entry, looked up) above

[3] = target: Kappa-type opioid receptor (Homo sapiens, UniProt P41145); assay: Compound was evaluated for binding affinity towards Opioid receptor kappa 1 by displacing 125 I-DPDYN
Kappa-type opioid receptor, sequence (P41145 whole entry): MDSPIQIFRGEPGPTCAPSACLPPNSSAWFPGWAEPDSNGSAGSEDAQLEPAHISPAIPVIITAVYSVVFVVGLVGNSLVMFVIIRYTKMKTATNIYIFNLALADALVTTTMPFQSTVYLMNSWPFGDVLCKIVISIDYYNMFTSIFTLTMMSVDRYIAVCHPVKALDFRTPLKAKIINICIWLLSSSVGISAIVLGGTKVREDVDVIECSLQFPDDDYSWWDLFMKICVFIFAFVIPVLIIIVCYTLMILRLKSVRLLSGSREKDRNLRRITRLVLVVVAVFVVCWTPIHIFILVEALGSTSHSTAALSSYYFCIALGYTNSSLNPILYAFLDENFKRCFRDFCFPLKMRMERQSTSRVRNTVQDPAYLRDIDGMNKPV

Mu-type opioid receptor = Mu-type opioid receptor (Homo sapiens, UniProt P35372); assay: Compound was evaluated for binding affinity towards Opioid receptor mu 1 by displacing 125 I-FK-33824
Mu-type opioid receptor, sequence (P35372 whole entry): as the sequence (P35372 whole entry, looked up) above

[4] = target: T1, Delta-type opioid receptor; assay: Effective concentration for agonistic activity towards delta opioid receptor was determined by [35S]GTP-gamma-S functional assay
[5] = target: T1, Delta-type opioid receptor; assay: Compound was tested for its ability to block the effect of selective delta opioid agonist SNC-80 in the functional assay

Row | Structure (SMILES) | Ratio [1] | IC50 [2] | IC50 [3] | IC50 (Mu-type opioid receptor) | EC50 [4] | Ke [5]
1 | Cc1cc(O)cc(C)c1C[C@H](N)C(=O)N1Cc2cc(-c3ccccc3)ccc2C[C@H]1C(=O)O | 48.1 | 13.2 nM | 5740 nM | 635 nM | – | –
2 | Cc1cc(O)cc(C)c1C[C@H](N)C(=O)N1Cc2c(cc(Br)c(O)c2Br)C[C@H]1C(=O)O | 1.1 | 1080 nM | > 10000 nM | 1240 nM | – | –
3 | COc1c(Br)cc2c(c1Br)CN(C(=O)[C@@H](N)Cc1c(C)cc(O)cc1C)[C@H](C(=O)O)C2 | 505 | 2.5 nM | > 10000 nM | 1670 nM | 28 nM | –
4 | COc1ccc2c(c1)CN(C(=O)C(N)Cc1c(C)cc(O)cc1C)[C@H](C(=O)O)C2 (stereo partly drawn) | 211 | 10.9 nM | 9000 nM | 2280 nM | – | –
5 | Cc1cc(O)cc(C)c1C[C@H](N)C(=O)N1Cc2ccccc2C[C@H]1C(=O)O (H-[Dmt]-[Tic]-OH) | 558 | 1.6 nM | 37500 nM | 894 nM | – | 5.3 nM
6 | COc1ccc2c(c1)CN(C(=O)[C@@H](N)Cc1c(C)cc(O)cc1C)[C@H](C(=O)O)C2 | 237 | 12.1 nM | 9440 nM | 2870 nM | – | –
7 | Cc1cc(O)cc(C)c1C[C@@H](N)C(=O)N1Cc2cc(-c3ccccc3)ccc2C[C@H]1C(=O)O | 15.9 | 122 nM | > 10000 nM | 1940 nM | – | –
8 | Cc1cc(O)cc(C)c1CC(N)C(=O)N1Cc2cc(O)ccc2C[C@H]1C(=O)O (stereo partly drawn) | 9.2 | 236 nM | 9290 nM | 2160 nM | – | –
9 | Cc1cc(O)cc(C)c1C[C@@H](N)C(=O)N1Cc2c(cc(Br)c(O)c2Br)C[C@H]1C(=O)O | – | > 10000 nM | – | 8130 nM | – | –
10 | COc1c(Br)cc2c(c1Br)CN(C(=O)[C@H](N)Cc1c(C)cc(O)cc1C)[C@H](C(=O)O)C2 | 14.4 | 571 nM | – | 8240 nM | – | –
11 | COc1ccc(-c2ccc3c(c2)CN(C(=O)[C@@H](N)Cc2c(C)cc(O)cc2C)[C@H](C(=O)O)C3)cc1 | 211 | 5.8 nM | > 10000 nM | 1140 nM | – | –
12 | COc1ccc(-c2ccc3c(c2)CN(C(=O)C(N)Cc2c(C)cc(O)cc2C)[C@H](C(=O)O)C3)cc1 (stereo partly drawn) | 546 | 4.9 nM | > 10000 nM | 2650 nM | – | 38.6 nM
13 | COc1ccc(-c2cc3c(cc2OC)CN(C(=O)C(N)Cc2c(C)cc(O)cc2C)[C@H](C(=O)O)C3)cc1 (stereo partly drawn) | 3.1 | 1520 nM | > 10000 nM | 4640 nM | – | –
14 | COc1cc2c(cc1-c1ccc(F)cc1)C[C@@H](C(=O)O)N(C(=O)C(N)Cc1c(C)cc(O)cc1C)C2 (stereo partly drawn) | 6.2 | 1160 nM | > 10000 nM | 7220 nM | – | –
15 | Cc1cc(O)cc(C)c1CC(N)C(=O)N1Cc2cc(-c3ccsc3)ccc2C[C@H]1C(=O)O (stereo partly drawn) | 10.5 | 13.5 nM | 2730 nM | 142 nM | – | –
16 | COc1cc2c(cc1-c1ccccc1)C[C@@H](C(=O)O)N(C(=O)C(N)Cc1c(C)cc(O)cc1C)C2 (stereo partly drawn) | – | 2540 nM | > 10000 nM | > 10000 nM | – | –
17 | Cc1cc(O)cc(C)c1C[C@@H](N)C(=O)N1Cc2cc(-c3ccc(F)cc3)ccc2C[C@H]1C(=O)O | – | 81.7 nM | > 10000 nM | – | – | –
18 | Cc1cc(O)cc(C)c1C[C@H](N)C(=O)N1Cc2cc(-c3ccc(F)cc3)ccc2C[C@H]1C(=O)O | 155 | 3.8 nM | 7560 nM | 587 nM | – | 11.5 nM
19 | Cc1cc(O)cc(C)c1CC(N)C(=O)N1Cc2cc(-c3cc4ccccc4o3)ccc2C[C@H]1C(=O)O (stereo partly drawn) | – | 52.7 nM | > 10000 nM | 2440 nM | – | –
